Reference: US20080071005A1, “Environment-Friendly Pollution-Proof Agent” (priority 2004, published 2008)
Read-outs that look alike come from different tables or passages of the source.

What was measured:
Enteromorpha spores = experiment: inhibitory activity test against the mobility of Enteromorpha spores; type: cell-based; details: Brassica extracts and fractions, comparison within the set
Source text: In order to investigate inhibitory substances against the mobility of Enteromorpha spores from extracts of Citrus sp., organic solvent fractions were made.
In order to investigate inhibitory substances against the mobility of Enteromorpha spores from extracts of brassica, organic solvent fractions were made.

[1] = tested on: spores of Enteromorpha prolifera and Ulva pertusa; experiment: prevention of the attachment of fouling algae (summary)
Method: The effect of the extracts on the prevention of the attachment of fouling algae was tested using the spores of Enteromorpha prolifera and Ulva pertusa, which are typical fouling algae.

[2] = safety test, oral and transdermal toxicity in rabbits; details: rabbit, in vivo
mice = experiment: safety test, 10 mg/kg to mice, 7 days observation; type: in vivo; details: 10 mg/kg in DMSO/water, 10 mice per group, observed for 7 days
Aspergillus niger = experiment: minimum inhibitory concentration, two-fold serial dilution in nutrient broth; type: cell-based; details: 30° C., 48 hours
Source text: (§1) A liquid medium obtained by diluting PAGS by two-fold serial dilution was placed on a 96-multiwell plate and inoculated with 10^4 cfu/ml of microorganisms. […] The liquid medium used in the test was a nutrient broth (Difco).

Staphylococcus aureus = experiment: as above; type: cell-based; details: 30° C., 48 hours
Source text: as §1

Compound | antifouling activity [1] | death of the mice (mice) | further results
CC/C=C\CCOC(C)=O [cis-3-hexenyl acetate] | excellent antifouling activity | – | inhibitory activity against the mobility of Enteromorpha spores, in words (Enteromorpha spores): most excellent inhibitory effect; solubility in organic solvent (organic solvent): insoluble in organic solvent; solubility in water (water): insoluble in water; LD50 ([2]; oral, read-out: LD50 (oral)): > 5000 mg/kg; LD50 ([2]; topical or ocular, transdermal, read-out: LD50 (transdermal)): > 5000 mg/kg
CCCCCCCCCCCCCCCCCCCC(=O)O [arachadic acid] | excellent antifouling activity | no death | –
C=CCN=C=S (single isomer, unassigned) [allyl isothiocyanate] | excellent antifouling activity | no death | –
C=CC(=C)CCC=C(C)C [beta-myrcene] | excellent antifouling activity | no death | –
CCCCCCCCO (single isomer, unassigned) [1-octanol] | excellent antifouling activity | no death | –
C=CCc1ccc(O)c(OC)c1 [eugenol] | excellent antifouling activity | no death | –
methyl caporate | excellent antifouling activity | no death | MIC Aspergillus niger 1:0 (Aspergillus niger; ratio 1:0): 10; MIC Aspergillus niger 3:1 (Aspergillus niger; ratio 3:1): 6; MIC Staphylococcus aureus 1:0 (Staphylococcus aureus; ratio 1:0): 4; MIC Staphylococcus aureus 3:1 (Staphylococcus aureus; ratio 3:1): 5
CCCCCCC(=O)OCC [ethyl heptanoate] | excellent antifouling activity | no death | –
CC(C)=CCC/C(C)=C/C=O | excellent antifouling activity | – | –
